Source: ChEMBL document CHEMBL1129909, “Potent non-peptidic dual inhibitors of endothelin-converting enzyme and neutral endopeptidase 24.11” (Bioorg Med Chem Lett, 1997)
pIC50: −log10 of the molar value.

Key:
[1] = target: T1, Endothelin-converting enzyme 1 (Homo sapiens) (UniProt P42892); assay: In vitro inhibition to recombinant human endothelin converting enzyme; set-up: concentration or dose not given beside the values; conditions: concentration not given here
T1 sequence (whole entry): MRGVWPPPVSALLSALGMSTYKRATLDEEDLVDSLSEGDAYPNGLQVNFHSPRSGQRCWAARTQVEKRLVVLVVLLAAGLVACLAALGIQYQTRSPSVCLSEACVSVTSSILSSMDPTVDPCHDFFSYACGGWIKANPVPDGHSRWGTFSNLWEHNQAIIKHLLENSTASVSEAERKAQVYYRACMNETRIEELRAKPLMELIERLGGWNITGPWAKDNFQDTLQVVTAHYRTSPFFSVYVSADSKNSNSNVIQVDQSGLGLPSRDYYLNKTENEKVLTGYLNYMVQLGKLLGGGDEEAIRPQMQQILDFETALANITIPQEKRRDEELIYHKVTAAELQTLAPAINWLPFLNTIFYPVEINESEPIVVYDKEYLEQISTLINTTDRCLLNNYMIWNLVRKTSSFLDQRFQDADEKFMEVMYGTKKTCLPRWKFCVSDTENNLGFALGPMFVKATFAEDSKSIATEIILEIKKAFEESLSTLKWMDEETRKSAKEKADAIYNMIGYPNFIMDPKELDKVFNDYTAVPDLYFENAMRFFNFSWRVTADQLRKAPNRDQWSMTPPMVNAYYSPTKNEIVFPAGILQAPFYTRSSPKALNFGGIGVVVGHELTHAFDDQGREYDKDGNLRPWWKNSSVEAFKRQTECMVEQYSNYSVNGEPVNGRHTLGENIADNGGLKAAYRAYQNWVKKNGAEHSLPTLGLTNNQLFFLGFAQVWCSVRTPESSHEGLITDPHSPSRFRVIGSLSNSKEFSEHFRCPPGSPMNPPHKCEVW

[2] = target: T2, Endothelin-converting enzyme 1 (Homo sapiens, UniProt P42892); assay: In vitro inhibition against recombinant human Endothelin converting enzyme 1 activity
T2 sequence (P42892 whole entry): T1 sequence (whole entry)

[3] = target: Neprilysin (Homo sapiens, UniProt P08473)
Sequence of Neprilysin (P08473 whole entry): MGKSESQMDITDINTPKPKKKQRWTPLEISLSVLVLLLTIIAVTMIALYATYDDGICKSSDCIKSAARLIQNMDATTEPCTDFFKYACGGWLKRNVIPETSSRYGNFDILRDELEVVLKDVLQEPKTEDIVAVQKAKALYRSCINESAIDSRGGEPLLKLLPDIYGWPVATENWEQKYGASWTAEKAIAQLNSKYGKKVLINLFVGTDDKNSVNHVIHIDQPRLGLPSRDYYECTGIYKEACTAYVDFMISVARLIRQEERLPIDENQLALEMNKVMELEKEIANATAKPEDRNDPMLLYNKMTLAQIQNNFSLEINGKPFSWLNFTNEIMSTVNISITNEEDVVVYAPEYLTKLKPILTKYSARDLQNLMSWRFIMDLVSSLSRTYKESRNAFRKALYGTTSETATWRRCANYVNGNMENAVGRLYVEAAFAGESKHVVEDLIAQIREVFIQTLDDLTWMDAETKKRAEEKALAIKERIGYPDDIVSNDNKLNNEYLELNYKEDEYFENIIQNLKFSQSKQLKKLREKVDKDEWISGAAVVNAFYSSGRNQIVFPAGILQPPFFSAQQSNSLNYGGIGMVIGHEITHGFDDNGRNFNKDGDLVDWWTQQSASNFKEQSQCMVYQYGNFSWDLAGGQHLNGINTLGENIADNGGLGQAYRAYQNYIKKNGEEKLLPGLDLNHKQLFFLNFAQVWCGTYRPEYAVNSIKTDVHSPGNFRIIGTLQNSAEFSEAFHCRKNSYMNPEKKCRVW
Description: Inhibition of neutral endopeptidase 24.11(NEP)

Row | SMILES | inhibition [1] [%] | pIC50 [2] | pIC50 [3]
1 | O=P(O)(O)C(Cc1ccc2c(c1)OCO2)N[C@H](Cc1ccc(-c2ccccc2)cc1)c1nnn[nH]1 (some centres not stated) | 76 | 6.41 | –
2 | O=P(O)(O)C(Cc1cccc2c1OCO2)N[C@@H](Cc1ccc(-c2ccccc2)cc1)c1nnn[nH]1 (some centres not stated) | 87 | 6.96 | –
3 | O=P(O)(O)CC(Cc1ccc(-c2ccccc2)cc1)c1nnn[nH]1 (configuration not stated) | 8 | – | –
4 | O=P(O)(O)C(Cc1ccccc1)N[C@@H](Cc1ccc(-c2ccccc2)cc1)c1nnn[nH]1 (some centres not stated) | 83 | 6.55 | –
5 | O=P(O)(O)CN[C@@H](Cc1ccc(-c2ccccc2)cc1)c1nn[nH]n1 | 79 | – | –
6 | O=P(O)(O)C(Cc1cccc2cccnc12)N[C@@H](Cc1ccc(-c2ccccc2)cc1)c1nnn[nH]1 (some centres not stated) | 93 | 7.64 | –
7 | O=P(O)(O)CN[C@@H](Cc1ccc(-c2ccccc2)cc1)c1nnn[nH]1 | – | 6.39 | –
8 | O=P(O)(O)CN[C@@H](Cc1ccc2ccccc2c1)c1nnn[nH]1 | 0 | – | –
9 | SCC(Cc1ccc(-c2ccccc2)cc1)c1nnn[nH]1 (configuration not stated) | 26 | – | –
10 | O=P(O)(O)C(Cc1ccc2c(c1)OCO2)N[C@@H](Cc1ccc(-c2ccccc2)cc1)c1nnn[nH]1 (some centres not stated) | 85 | 7.03 | –
11 | O=C(O)c1n[nH]c([C@H](Cc2ccc(-c3ccccc3)cc2)NCP(=O)(O)O)n1 | 14 | – | –
12 | O=C(O)C[C@H](Cc1ccc(-c2ccccc2)cc1)NCP(=O)(O)O | 0 | – | –
13 | O=P(O)(CCc1ccc2ccccc2c1)N[C@@H](Cc1ccc(-c2ccccc2)cc1)c1nnn[nH]1 | 0 | – | –
14 | O=P(O)(O)CN[C@@H](Cc1ccc(-c2ccccc2)cc1)c1nc[nH]n1 | 0 | – | –
15 | O=C(O)[C@H](Cc1ccc(-c2ccccc2)cc1)NCP(=O)(O)O | 20 | – | –
16 | O=P(O)(O)C(Cc1cccc2cccnc12)N[C@H](Cc1ccc(-c2ccccc2)cc1)c1nnn[nH]1 (some centres not stated) | 22 | < 6.00 | –

Row | SMILES | inhibition [1] [%] | pIC50 [2] | pIC50 [3]
17 | O=P(O)(O)C(Cc1cccc2ccccc12)N[C@H](Cc1ccc(-c2ccccc2)cc1)c1nnn[nH]1 (some centres not stated) | 85 | 6.80 | –
18 | O=P(O)(O)C(Cc1cccc2c1OCO2)N[C@H](Cc1ccc(-c2ccccc2)cc1)c1nnn[nH]1 (some centres not stated) | 50 | 5.96 | –
19 | CC(C)C[C@H](NP(=O)(O)O[C@@H]1O[C@@H](C)[C@H](O)[C@@H](O)[C@H]1O)C(=O)N[C@@H](Cc1c[nH]c2ccccc12)C(=O)O [PHOSPHORAMIDON] | 47 | – | 7.52
20 | O=P(O)(O)C(Cc1ccccc1)N[C@H](Cc1ccc(-c2ccccc2)cc1)c1nnn[nH]1 (some centres not stated) | 18 | 5.30 | –
21 | O=P(O)(O)CN[C@@H](Cc1ccccc1)c1nnn[nH]1 | 0 | – | –
22 | O=P(O)(O)CCC(Cc1ccc(-c2ccccc2)cc1)c1nnn[nH]1 (configuration not stated) | 0 | – | –
23 | O=P(O)(O)CN[C@H](Cc1ccc(-c2ccccc2)cc1)c1nnn[nH]1 | 0 | – | –
24 | O=C(O)CNC(=O)C(CS)Cc1ccccc1 (configuration not stated) [THIORPHAN] | 9 | < 4.00 | –
25 | O=P(O)(O)C(N[C@H](Cc1ccc(-c2ccccc2)cc1)c1nnn[nH]1)c1cccc2ccccc12 (some centres not stated) | 49 | < 6.00 | –
26 | O=P(O)(O)C(N[C@@H](Cc1ccc(-c2ccccc2)cc1)c1nnn[nH]1)c1cccc2ccccc12 (some centres not stated) | 14 | < 6.00 | –
27 | O=P(O)(O)CN[C@@H](CCc1ccccc1)c1nnn[nH]1 | 0 | – | –
28 | O=P(O)(O)CN[C@@H](Cc1c[nH]c2ccccc12)c1nnn[nH]1 | 10 | – | –
29 | O=P(O)(O)C(Cc1ccc2ccccc2c1)N[C@H](Cc1ccc(-c2ccccc2)cc1)c1nnn[nH]1 (some centres not stated) | 47 | 5.85 | –
30 | O=P(O)(O)C(Cc1ccc2ccccc2c1)N[C@@H](Cc1ccc(-c2ccccc2)cc1)c1nnn[nH]1 (some centres not stated) [CGS-314447] | 91 | 7.35 | –
31 | O=P(O)(O)C(Cc1cccc2ccccc12)N[C@@H](Cc1ccc(-c2ccccc2)cc1)c1nnn[nH]1 (some centres not stated) | 95 | 7.77 | –
